Test results from ChEMBL document CHEMBL1201862, “PubChem BioAssay data set” (2004).
The source made the active and inactive calls.

Key:
Troponin, cardiac muscle = Troponin, cardiac muscle (Homo sapiens, UniProt P19429+P45379+P63316); assay: Fluorescence-based biochemical high throughput dose response assay for activators of the calcium sensitivity of cardiac Regulated Thin Filaments (RTF). [Related pubchem assays (depositor defined):AID493008, AID493018, AID504382, AID504383]; assay type: protein-complex assay
[1] = M. tuberculosis H37Rv growth inhibitors, H37Rv strain (AID 1626); assay type: functional
Coagulation factor XII = target: T1, Coagulation factor XII (Homo sapiens, UniProt P00748); assay type: functional;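 also: activated factor XIIa alpha cleaving a fluorogenic AMC peptide substrate; inhibitor potency from loss of enzyme activity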
T1 sequence (P00748 whole entry): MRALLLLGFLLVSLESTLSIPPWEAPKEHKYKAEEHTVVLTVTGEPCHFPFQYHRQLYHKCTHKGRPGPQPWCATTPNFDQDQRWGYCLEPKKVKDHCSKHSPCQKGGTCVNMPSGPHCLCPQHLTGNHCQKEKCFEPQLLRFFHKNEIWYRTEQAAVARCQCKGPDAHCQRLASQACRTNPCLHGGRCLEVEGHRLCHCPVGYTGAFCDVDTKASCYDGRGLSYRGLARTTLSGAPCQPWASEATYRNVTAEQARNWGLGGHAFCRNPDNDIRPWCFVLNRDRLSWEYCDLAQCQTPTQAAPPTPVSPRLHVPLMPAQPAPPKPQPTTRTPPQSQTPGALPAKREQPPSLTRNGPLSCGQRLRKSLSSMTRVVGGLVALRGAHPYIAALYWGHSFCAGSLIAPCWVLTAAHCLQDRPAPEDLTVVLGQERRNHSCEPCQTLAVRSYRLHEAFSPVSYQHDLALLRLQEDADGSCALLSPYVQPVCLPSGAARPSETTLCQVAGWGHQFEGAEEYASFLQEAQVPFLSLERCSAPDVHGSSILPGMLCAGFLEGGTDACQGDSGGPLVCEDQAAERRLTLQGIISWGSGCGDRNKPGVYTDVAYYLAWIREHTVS

[2] = target: DNA dC->dU-editing enzyme APOBEC-3G (Homo sapiens, UniProt Q9HC16); assay: Dose Response confirmation of small molecule APOBEC3G DNA Deaminase Inhibitors via a fluorescence-based single-stranded DNA deaminase assay. [Related pubchem assays (depositor defined):AID493012, AID493028]; assay type: functional
[3] = Luminescence Cell-Based Dose Confirmation HTS to Identify Activators of 5'UTR Stem-Loop Driven Alpha-Synuclein mRNA Translation in H4 Neuroglioblastoma Cells. [Related pubchem assays: 1829 (Project Summary), 1814 (Primary HTS)]; assay type: functional
[4] = target: T2, Voltage-gated N-type calcium channel alpha-1B subunit/Amyloid beta A4 precursor protein-binding family A member 1 (Homo sapiens, UniProt Q00975+Q02410); assay type: protein assay
Large T antigen = Large T antigen (Simian virus 40, UniProt P03070); assay type: functional, Betapolyomavirus macacae;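 also: Confirmatory-stage PubChem screen for compounds that inhibit SV40 T antigen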
H4 = assay: Luminescence Cell-Based Dose Response HTS to Identify Activators of 5'UTR Stem-Loop Driven Prion Protein mRNA Translation in H4 Neuroglioblastoma Cells. [Related pubchem assays: 1829 (Project Summary), 1814 (Primary HTS)]; assay type: functional; settings: Homo sapiens
[5] = HIV-1 Vif–A3G interaction blockers – biochemical, TR-FRET, GST-Vif 1-94, biotin-A3G peptide, dose response retest, primary screen (AID 1117319); assay type: functional;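 also: TR-FRET signal of purified GST-Vif binding a biotinylated A3G peptide; inhibitors lower the FRET signal by blocking Vif and A3G binding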
[6] = target: DNA dC->dU-editing enzyme APOBEC-3A (Homo sapiens, UniProt P31941); assay: A3A deaminase inhibition for selectivity – biochemical, dose response (AID 504722); assay type: functional
Protein Tat = target: T3, Protein Tat (Human immunodeficiency virus type 1 group M subtype B (isolate HXB2)(HIV-1), UniProt P04608); assay type: functional;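 also: tat binding to TAR RNA read out by fluorescence polarization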
T3 sequence (P04608 whole entry): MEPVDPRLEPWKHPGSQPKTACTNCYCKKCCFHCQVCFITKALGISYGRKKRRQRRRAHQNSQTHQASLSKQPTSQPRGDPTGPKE

[7] = Luminescence Cell-Based Dose Response HTS to Identify Activators of Luciferase Translation or Activity in H4 […] Cells. [Related pubchem assays: 1829 (Project Summary), 1814 (Primary HTS)]; assay type: functional
[8] = target: T2, Voltage-gated N-type calcium channel alpha-1B subunit/Amyloid beta A4 precursor protein-binding family A member 1; assay type: protein assay; remark: listed apart in the source
[9] = DRD fibroblast viability loss – cell-based, non-viral oncogenic, luminescence, dose response (AID 1934); assay type: functional; settings: Homo sapiens
[10] = luciferase reporter signal suppression in cells – H4 neuroglioma cells, luminescence, dose response (AID 1990); assay type: functional, cell-based
[11] = alpha-synuclein stem-loop translation blockers – luminescence, H4 neuroglioblastoma cells, dose confirmation, confirmation (AID 2454); assay type: functional, cell-based;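 also: H4 neuroglioblastoma cells carrying an alpha-synuclein 5'UTR luciferase reporter; potency for inhibition of the luciferase signal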
cells = assay type: functional, cell-based
BJ [12] = assay: BJ-TERT-LT-ST fibroblast viability loss – cell-based, RAS-independent, luminescence, dose response (AID 1935); assay type: functional; settings: Homo sapiens;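 also: BJ fibroblasts immortalized with TERT plus LT and ST oncogenes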
BJ [13] = assay: cells; assay type: functional, cell-based; settings: Homo sapiens
BJ [14] = assay: BJ-TERT fibroblast viability loss – cell-based, RAS-independent, luminescence, dose response (AID 1933); assay type: functional; settings: Homo sapiens
[15] = luciferase reporter signal reduction – luminescence, H4-C neuroglioblastoma cells, dose response (AID 2458); assay type: functional, cell-based;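 also: H4 neuroglioblastoma cells stably carrying a luciferase reporter gene fusion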
[16] = HEK-293T cell viability reduction – luminescence, B-cell screen hits, cytotoxicity control for BCR NF-kB inhibitor project, dose response (AID 489021); assay type: functional, cell-based;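 also: HEK-293T cells carrying an NF-kB luciferase reporter; cells exposed to compound for about 14 hours before viability readout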
[17] = alpha-synuclein stem-loop luciferase translation blockers – H4 neuroglioma cells, luminescence, confirmation (AID 1988); assay type: functional, cell-based
[18] = target: Melanin-concentrating hormone receptor 1 (Homo sapiens, UniProt Q99705); assay: Late-stage fluorescence-based counterscreen for antagonists of the G-protein coupled receptor 7 (GPR7): cell-based dose response assay to identify antagonists of the melanin-concentrating hormone receptor 1 (MCHR1). [Related pubchem assays (depositor defined):AID1861, AID1880, AID1952, AID2148, AID2251, AID2257, AID485339]; assay type: functional;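 also: stimulated with 30 nM MCH peptide agonist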
Beta-lactamase [19] = target: Beta-lactamase (Salmonella choleraesuis (strain SC-B67), UniProt Q5J463)
[20] = target: T4, Zinc finger protein mex-5 (Caenorhabditis elegans, UniProt Q9XUB2); assay: potency of MEX-5 RNA-binding blockers – biochemical, C. elegans, fluorescence polarization, dose response (AID 1960)
T4 sequence (Q9XUB2 whole entry): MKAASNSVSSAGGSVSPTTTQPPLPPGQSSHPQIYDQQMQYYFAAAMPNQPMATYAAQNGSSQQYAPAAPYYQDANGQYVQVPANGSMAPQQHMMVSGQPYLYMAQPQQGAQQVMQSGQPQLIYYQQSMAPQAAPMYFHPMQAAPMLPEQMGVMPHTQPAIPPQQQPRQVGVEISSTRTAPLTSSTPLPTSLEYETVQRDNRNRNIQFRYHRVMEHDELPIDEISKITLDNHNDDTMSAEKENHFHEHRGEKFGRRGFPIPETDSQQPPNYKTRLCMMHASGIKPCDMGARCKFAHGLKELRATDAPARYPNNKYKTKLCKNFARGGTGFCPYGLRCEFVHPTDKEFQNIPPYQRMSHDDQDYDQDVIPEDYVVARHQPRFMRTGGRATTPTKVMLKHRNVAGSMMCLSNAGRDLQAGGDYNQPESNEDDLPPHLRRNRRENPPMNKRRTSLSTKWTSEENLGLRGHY

Beta-lactamase [21] = target: Beta-lactamase (Pseudomonas aeruginosa, UniProt Q79MP6);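 also: biochemical dose-response test of metallo-beta-lactamase enzyme inhibition, read out by epi-absorbance; purified recombinant IMP-1 metallo-beta-lactamase with nitrocefin as substrate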
[22] = target: G-protein coupled receptor 35 (Homo sapiens, UniProt Q9HC97); assay: inhibition of zaprinast-stimulated GPR35 beta-arrestin translocation – imaging, U2OS, beta-arrestin-GFP, zaprinast agonist, primary screen (AID 2058); assay type: functional;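 also: antagonist potency meaning inhibition of agonist-induced arrestin redistribution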
[23] = target: T5, RNA-binding protein pos-1 (Caenorhabditis elegans, UniProt G5EF15); assay: disruptors of C. elegans POS-1 RNA interaction – biochemical, fluorescence polarization, dose response (AID 1964);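 also: purified POS-1 fused to maltose binding protein made in E. coli; potency of compounds blocking POS-1 binding to fluorescent RNA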
T5 sequence (G5EF15 whole entry): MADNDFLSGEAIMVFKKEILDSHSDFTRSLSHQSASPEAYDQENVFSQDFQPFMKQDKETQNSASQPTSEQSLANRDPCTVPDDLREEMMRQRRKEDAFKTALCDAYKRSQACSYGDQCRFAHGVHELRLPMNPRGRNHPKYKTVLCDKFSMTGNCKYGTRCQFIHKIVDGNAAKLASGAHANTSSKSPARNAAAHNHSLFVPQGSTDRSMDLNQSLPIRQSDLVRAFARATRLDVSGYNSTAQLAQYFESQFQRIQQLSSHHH

Prothrombin = Prothrombin (Homo sapiens, UniProt P00734); assay: Thrombin 1536 HTS Dose Response Confirmation. [Related pubchem assays: 1046 (Thrombin 1536 HTS; hits were confirmed in this assay)]; assay type: functional

T2 sequence (Q00975 whole entry): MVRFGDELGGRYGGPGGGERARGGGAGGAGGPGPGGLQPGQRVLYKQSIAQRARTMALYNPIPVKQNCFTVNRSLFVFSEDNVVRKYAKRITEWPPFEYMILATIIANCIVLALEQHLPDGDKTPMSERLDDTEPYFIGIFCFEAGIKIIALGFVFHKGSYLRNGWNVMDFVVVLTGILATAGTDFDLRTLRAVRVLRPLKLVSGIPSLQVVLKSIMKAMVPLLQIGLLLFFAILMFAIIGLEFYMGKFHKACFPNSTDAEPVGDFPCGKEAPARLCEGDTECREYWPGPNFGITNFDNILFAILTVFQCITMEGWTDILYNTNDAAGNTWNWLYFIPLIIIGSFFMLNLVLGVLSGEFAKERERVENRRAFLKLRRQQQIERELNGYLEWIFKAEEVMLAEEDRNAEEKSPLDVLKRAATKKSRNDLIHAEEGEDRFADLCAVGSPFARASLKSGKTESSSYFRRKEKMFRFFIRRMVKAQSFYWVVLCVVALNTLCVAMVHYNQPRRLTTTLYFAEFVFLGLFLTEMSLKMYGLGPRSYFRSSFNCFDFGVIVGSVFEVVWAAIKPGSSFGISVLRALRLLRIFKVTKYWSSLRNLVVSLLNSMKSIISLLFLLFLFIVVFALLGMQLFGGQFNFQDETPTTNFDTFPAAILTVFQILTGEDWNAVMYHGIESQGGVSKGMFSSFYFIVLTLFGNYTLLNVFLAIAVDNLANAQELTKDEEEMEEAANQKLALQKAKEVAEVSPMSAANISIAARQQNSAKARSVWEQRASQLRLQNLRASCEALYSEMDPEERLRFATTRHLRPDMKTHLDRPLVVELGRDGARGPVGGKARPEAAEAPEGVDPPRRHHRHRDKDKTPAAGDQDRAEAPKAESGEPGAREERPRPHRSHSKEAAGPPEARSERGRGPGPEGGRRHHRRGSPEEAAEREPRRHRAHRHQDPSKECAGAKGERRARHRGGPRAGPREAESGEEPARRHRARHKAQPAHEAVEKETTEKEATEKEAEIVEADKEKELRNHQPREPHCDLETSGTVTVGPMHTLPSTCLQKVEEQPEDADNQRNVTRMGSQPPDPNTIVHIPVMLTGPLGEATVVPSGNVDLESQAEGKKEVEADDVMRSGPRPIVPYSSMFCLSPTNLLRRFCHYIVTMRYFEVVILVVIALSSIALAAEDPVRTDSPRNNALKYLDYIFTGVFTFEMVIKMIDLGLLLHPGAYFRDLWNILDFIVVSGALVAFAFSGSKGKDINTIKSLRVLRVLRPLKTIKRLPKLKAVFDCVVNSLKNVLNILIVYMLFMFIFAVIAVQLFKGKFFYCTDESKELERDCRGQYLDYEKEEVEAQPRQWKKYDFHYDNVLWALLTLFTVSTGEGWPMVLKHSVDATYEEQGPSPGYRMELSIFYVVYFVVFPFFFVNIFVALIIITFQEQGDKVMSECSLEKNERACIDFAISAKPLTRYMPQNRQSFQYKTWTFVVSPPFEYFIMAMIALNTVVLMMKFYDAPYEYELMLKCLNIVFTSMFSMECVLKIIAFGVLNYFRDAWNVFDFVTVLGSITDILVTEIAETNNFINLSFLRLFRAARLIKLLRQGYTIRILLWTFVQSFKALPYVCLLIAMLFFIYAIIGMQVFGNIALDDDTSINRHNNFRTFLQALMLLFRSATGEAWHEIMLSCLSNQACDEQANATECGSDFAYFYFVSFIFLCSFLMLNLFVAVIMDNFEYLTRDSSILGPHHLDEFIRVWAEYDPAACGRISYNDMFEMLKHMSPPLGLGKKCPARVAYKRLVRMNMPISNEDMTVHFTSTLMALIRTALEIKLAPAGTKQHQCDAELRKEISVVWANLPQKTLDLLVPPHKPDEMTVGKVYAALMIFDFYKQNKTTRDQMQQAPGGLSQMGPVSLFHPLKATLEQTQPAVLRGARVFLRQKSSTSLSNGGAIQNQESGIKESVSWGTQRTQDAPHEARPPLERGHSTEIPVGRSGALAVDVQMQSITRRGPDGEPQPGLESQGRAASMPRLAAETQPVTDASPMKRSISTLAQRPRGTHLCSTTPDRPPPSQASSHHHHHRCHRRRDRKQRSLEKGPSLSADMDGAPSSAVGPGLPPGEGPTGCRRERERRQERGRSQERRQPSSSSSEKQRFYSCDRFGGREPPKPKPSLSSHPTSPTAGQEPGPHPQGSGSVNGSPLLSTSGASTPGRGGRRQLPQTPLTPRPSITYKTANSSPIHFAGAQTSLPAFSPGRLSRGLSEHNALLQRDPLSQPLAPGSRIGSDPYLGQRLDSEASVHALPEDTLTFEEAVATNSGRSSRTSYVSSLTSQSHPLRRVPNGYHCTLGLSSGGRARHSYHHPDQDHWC
T2 sequence (Q02410 whole entry): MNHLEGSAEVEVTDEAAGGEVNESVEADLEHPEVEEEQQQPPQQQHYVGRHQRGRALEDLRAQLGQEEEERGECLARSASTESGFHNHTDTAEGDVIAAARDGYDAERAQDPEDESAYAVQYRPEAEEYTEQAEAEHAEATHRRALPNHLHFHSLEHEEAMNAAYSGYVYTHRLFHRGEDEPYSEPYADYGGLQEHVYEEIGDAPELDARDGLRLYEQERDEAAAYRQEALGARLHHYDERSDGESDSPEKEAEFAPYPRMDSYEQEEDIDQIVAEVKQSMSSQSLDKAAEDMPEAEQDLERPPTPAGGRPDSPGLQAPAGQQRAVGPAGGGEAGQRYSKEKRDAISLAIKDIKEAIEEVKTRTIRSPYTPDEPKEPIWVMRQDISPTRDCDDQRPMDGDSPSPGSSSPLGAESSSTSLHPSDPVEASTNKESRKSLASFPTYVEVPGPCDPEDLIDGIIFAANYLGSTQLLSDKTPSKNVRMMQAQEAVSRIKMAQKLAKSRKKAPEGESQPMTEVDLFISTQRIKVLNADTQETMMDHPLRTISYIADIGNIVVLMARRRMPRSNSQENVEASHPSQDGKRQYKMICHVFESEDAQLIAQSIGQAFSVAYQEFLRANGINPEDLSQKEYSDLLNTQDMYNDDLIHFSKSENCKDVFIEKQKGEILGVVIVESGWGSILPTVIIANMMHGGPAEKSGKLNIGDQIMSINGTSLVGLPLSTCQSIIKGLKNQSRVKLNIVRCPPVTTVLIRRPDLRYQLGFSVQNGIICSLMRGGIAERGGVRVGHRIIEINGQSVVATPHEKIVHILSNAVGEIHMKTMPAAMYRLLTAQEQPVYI
Sequence of Beta-lactamase (Pseudomonas aeruginosa, UniProt Q79MP6) (Q79MP6 whole entry): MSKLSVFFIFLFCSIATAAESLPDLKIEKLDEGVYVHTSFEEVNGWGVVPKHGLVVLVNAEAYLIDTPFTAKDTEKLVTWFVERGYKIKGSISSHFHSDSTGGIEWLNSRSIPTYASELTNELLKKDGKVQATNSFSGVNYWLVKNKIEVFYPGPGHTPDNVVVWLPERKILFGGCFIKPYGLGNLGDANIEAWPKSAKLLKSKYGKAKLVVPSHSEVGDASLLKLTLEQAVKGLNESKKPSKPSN
Sequence of DNA dC->dU-editing enzyme APOBEC-3A (P31941 whole entry): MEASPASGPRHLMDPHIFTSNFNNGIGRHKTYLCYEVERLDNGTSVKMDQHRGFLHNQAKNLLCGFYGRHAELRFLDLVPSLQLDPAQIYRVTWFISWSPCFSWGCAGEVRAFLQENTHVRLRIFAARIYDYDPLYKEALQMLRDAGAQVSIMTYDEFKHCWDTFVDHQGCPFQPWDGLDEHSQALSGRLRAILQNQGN
Sequence of DNA dC->dU-editing enzyme APOBEC-3G (Q9HC16 whole entry): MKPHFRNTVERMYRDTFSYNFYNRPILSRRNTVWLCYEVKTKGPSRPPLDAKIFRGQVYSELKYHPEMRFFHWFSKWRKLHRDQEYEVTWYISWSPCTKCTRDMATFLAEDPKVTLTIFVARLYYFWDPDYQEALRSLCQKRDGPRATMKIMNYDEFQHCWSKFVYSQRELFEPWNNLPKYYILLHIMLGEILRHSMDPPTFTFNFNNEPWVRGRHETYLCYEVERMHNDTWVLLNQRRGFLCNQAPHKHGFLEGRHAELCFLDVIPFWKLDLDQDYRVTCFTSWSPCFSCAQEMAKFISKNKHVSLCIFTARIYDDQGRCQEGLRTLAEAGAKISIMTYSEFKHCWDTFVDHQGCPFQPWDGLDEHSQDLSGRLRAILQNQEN
Sequence of Beta-lactamase (Salmonella choleraesuis (strain SC-B67), UniProt Q5J463) (Q5J463 whole entry): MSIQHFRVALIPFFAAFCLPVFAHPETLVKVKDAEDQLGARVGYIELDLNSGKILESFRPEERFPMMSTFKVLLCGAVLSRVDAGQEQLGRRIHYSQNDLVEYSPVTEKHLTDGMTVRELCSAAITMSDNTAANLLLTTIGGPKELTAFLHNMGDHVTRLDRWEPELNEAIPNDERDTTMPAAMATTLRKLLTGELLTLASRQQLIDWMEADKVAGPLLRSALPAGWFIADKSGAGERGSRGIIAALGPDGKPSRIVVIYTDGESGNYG
Sequence of Melanin-concentrating hormone receptor 1 (Q99705 whole entry): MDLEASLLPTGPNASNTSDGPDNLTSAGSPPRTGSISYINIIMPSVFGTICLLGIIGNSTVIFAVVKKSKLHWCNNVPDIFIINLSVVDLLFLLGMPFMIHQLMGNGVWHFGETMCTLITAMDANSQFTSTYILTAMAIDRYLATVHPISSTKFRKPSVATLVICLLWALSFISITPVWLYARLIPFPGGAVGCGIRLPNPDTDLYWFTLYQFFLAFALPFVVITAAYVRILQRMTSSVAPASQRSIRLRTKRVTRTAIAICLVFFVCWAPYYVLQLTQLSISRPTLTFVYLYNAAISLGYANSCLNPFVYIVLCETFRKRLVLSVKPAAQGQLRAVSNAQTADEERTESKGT
Sequence of G-protein coupled receptor 35 (Q9HC97 whole entry, the tested form may be a part): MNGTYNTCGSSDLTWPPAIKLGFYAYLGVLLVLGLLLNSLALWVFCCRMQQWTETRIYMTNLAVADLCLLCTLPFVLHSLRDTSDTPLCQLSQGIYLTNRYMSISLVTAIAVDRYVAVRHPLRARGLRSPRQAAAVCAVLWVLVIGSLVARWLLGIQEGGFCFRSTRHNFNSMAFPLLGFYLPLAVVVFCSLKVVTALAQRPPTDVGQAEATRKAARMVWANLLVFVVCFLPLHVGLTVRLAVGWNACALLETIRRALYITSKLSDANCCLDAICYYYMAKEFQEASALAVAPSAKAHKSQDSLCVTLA

SMILES: CN(C)NC(=O)c1ccc([N+](=O)[O-])s1
- EC50 (Troponin, cardiac muscle): > 71.4 µM (inactive)

SMILES: CN1C(=O)C(=CNc2ccc3c(c2)CCC3)C(=O)N(C)C1=O
- IC50 [1]: > 100 µM (active)

SMILES: Cc1cc(C)n2nc(SCC(=O)Nc3ccc(F)cc3)nc2n1
- IC50 (Coagulation factor XII): > 50 µM (inactive)

SMILES: Cc1ccc(N2CSC3=C(C#N)C(c4cccs4)CC(=O)N3C2)cc1 (stereo unspecified)
- IC50 [2]: 5.19 µM (active)
- EC50 [3]: 13.2 µM (active)
- IC50 [4]: 3.74 µM (active)
- IC50 (Large T antigen): > 100 µM (active)
- EC50 (H4): 7.71 µM (active)
- IC50 [5]: > 100 µM (active)
- IC50 [6]: > 100 µM (inactive)
- IC50 (Protein Tat): > 100 µM (active)
- EC50 [7]: 17 µM (active)
- IC50 [8]: > 50 µM (inactive)

SMILES: CCOC(=O)Cc1ccc(NC(=O)c2ccc(C(C)(C)C)cc2)cc1
- EC50 [9]: 49.5 µM (active)
- EC50 [10]: < 0.1 µM (active)
- EC50 [11]: 0.483 µM (active)
- EC50 (cells): 0.508 µM (active)
- EC50 (BJ [12]): > 150 µM (inconclusive)
- EC50 (BJ [13]): > 150 µM (not active)
- EC50 (BJ [14]): 60.1 µM (active)
- EC50 [15]: 0.266 µM (active)
- IC50 [16]: 42.8 µM (inactive)
- EC50 [17]: < 0.1 µM (active)

SMILES: CCC(C)c1ccc(-n2ncc(Cl)c(Oc3ccc(OC)cc3)c2=O)cc1 (stereo unspecified)
- IC50 [18]: 2.2 µM (active)

SMILES: CN1C(=O)/C(=C\c2ccc(N(C)C)cc2)OC1=S
- IC50 (Beta-lactamase [19]): > 59.6 µM (inactive)
- EC50 [20]: > 300 µM (inconclusive)
- IC50 (Beta-lactamase [21]): > 59.6 µM (inactive)
- IC50 [22]: 1.12 µM (active)
- EC50 [23]: > 300 µM (not active)

SMILES: CC(=O)NNC(=S)NC(=O)c1ccccc1
- IC50 (Prothrombin): > 50 µM (inconclusive)
- IC50 (Coagulation factor XII): > 50 µM (inactive)
